Each structure is given as a SMILES string. pIC50: −log10 of the molar value.

One may read the pIC50 as the negative decadic logarithm of the IC50, by convention in mol/L. The viability, T/C is the result in the treated group divided by that in the control group, in per cent.
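Also: spheroids exposed to compounds for 7 days before readout.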
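For viability, T/C in this document: percent of vehicle DMSO control viability with 100% = untreated-like growth.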

The subject of one experiment is 282377-053-R-J1-PDC complex spheroids, viability. Nature of the experiment: Anticancer human tumor 282377-053-R-J1-PDC patient-derived colon adenocarcinoma cell line growth inhibition [GQUAD]. The settings on record: curve of first compound; second compound 10 µM. The procedure, abridged: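 Tumor cells were grown as complex spheroids with HUVEC endothelial cells and mesenchymal stem cells as stroma. G-quadruplex stabilizers were combined with targeted agents over half-log dilutions from near the clinical Cmax, or from 10 microM.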
For the compound `CC(C)(O)C1CCC(Nc2ccc3ncc(-c4cccc(C(F)(F)F)c4)n3n2)CC1` (stereo unspecified) + CN(C)c1ccc(Nc2c3ccc(NC(=O)CCN4CCCC4)cc3nc3cc(NC(=O)CCN4CCCC4)ccc23)cc1, the pIC50 is 5.84.
Take `COc1ncnc(C2CC2)c1-c1ncc2cnn(Cc3ccc(-c4nc(C(F)(F)F)cn4C(C)C)cc3)c2n1` + CN(C)c1ccc(Nc2c3ccc(NC(=O)CCN4CCCC4)cc3nc3cc(NC(=O)CCN4CCCC4)ccc23)cc1: the negative-log IC50 (pIC50) was under 5.00.
Same read-out and setting: the same measure for `CC1COCCN1c1cc(C2(S(C)(=N)=O)CC2)nc(-c2ccnc3[nH]ccc23)n1` (stereo unspecified) + Cc1[nH]c2ccc(F)cc2c1-c1nc2c3cccnc3c3ncccc3c2[nH]1: over 7.50.
Same read-out and setting: as for `COc1ccc([C@@H](O)c2cc(-c3ncnc4cc(N5CCOCC5)ccc34)c(F)cc2Cl)nn1` + Cc1[nH]c2ccc(F)cc2c1-c1nc2c3cccnc3c3ncccc3c2[nH]1, the figure is over 7.50.

Staying with this experiment, now noted: second compound 0.0316 µM; first compound 0.0316 µM; stronger effect = lower value.
In the case of `C=CCn1c(=O)c2cnc(Nc3ccc(N4CCN(C)CC4)cc3)nc2n1-c1cccc(C(C)(C)O)n1` + CN(C)c1ccc(Nc2c3ccc(NC(=O)CCN4CCCC4)cc3nc3cc(NC(=O)CCN4CCCC4)ccc23)cc1, the viability, T/C is 94.2%.
Turning to `CC(C)(O)C1CCC(Nc2ccc3ncc(-c4cccc(C(F)(F)F)c4)n3n2)CC1` (stereo unspecified) + CN(C)c1ccc(Nc2c3ccc(NC(=O)CCN4CCCC4)cc3nc3cc(NC(=O)CCN4CCCC4)ccc23)cc1, the viability, T/C is 121%.
On to `COc1ncnc(C2CC2)c1-c1ncc2cnn(Cc3ccc(-c4nc(C(F)(F)F)cn4C(C)C)cc3)c2n1` + CN(C)c1ccc(Nc2c3ccc(NC(=O)CCN4CCCC4)cc3nc3cc(NC(=O)CCN4CCCC4)ccc23)cc1, for which the viability, T/C was 108%.
Still for that read-out and setting: the same measure for `CC1COCCN1c1cc(C2(S(C)(=N)=O)CC2)nc(-c2ccnc3[nH]ccc23)n1` (stereo unspecified) + Cc1[nH]c2ccc(F)cc2c1-c1nc2c3cccnc3c3ncccc3c2[nH]1: 85.5%.
In the case of `COc1ccc([C@@H](O)c2cc(-c3ncnc4cc(N5CCOCC5)ccc34)c(F)cc2Cl)nn1` + Cc1[nH]c2ccc(F)cc2c1-c1nc2c3cccnc3c3ncccc3c2[nH]1, the viability, T/C was 101%.

The same experiment, now with this note: second compound 0.0316 µM; first compound 0.1 µM; stronger effect = lower value.
As to `C=CCn1c(=O)c2cnc(Nc3ccc(N4CCN(C)CC4)cc3)nc2n1-c1cccc(C(C)(C)O)n1` + CN(C)c1ccc(Nc2c3ccc(NC(=O)CCN4CCCC4)cc3nc3cc(NC(=O)CCN4CCCC4)ccc23)cc1, the viability, T/C was 99.9%.
The same measure, in the same setting: as for `CC(C)(O)C1CCC(Nc2ccc3ncc(-c4cccc(C(F)(F)F)c4)n3n2)CC1` (stereo unspecified) + CN(C)c1ccc(Nc2c3ccc(NC(=O)CCN4CCCC4)cc3nc3cc(NC(=O)CCN4CCCC4)ccc23)cc1, the figure is 100%; as for `COc1ncnc(C2CC2)c1-c1ncc2cnn(Cc3ccc(-c4nc(C(F)(F)F)cn4C(C)C)cc3)c2n1` + CN(C)c1ccc(Nc2c3ccc(NC(=O)CCN4CCCC4)cc3nc3cc(NC(=O)CCN4CCCC4)ccc23)cc1, 83.7%.
Same read-out and setting: as for `CC1COCCN1c1cc(C2(S(C)(=N)=O)CC2)nc(-c2ccnc3[nH]ccc23)n1` (stereo unspecified) + Cc1[nH]c2ccc(F)cc2c1-c1nc2c3cccnc3c3ncccc3c2[nH]1, the figure is 83.7%.
Regarding `COc1ccc([C@@H](O)c2cc(-c3ncnc4cc(N5CCOCC5)ccc34)c(F)cc2Cl)nn1` + Cc1[nH]c2ccc(F)cc2c1-c1nc2c3cccnc3c3ncccc3c2[nH]1, the viability, T/C is 91.3%.

The same experiment, now with this note: second compound 0.0316 µM; first compound 0.316 µM; stronger effect = lower value.
Regarding `C=CCn1c(=O)c2cnc(Nc3ccc(N4CCN(C)CC4)cc3)nc2n1-c1cccc(C(C)(C)O)n1` + CN(C)c1ccc(Nc2c3ccc(NC(=O)CCN4CCCC4)cc3nc3cc(NC(=O)CCN4CCCC4)ccc23)cc1, the viability, T/C is 83.3%.
For `CC(C)(O)C1CCC(Nc2ccc3ncc(-c4cccc(C(F)(F)F)c4)n3n2)CC1` (stereo unspecified) + CN(C)c1ccc(Nc2c3ccc(NC(=O)CCN4CCCC4)cc3nc3cc(NC(=O)CCN4CCCC4)ccc23)cc1, the viability, T/C was 74%.
As to `COc1ncnc(C2CC2)c1-c1ncc2cnn(Cc3ccc(-c4nc(C(F)(F)F)cn4C(C)C)cc3)c2n1` + CN(C)c1ccc(Nc2c3ccc(NC(=O)CCN4CCCC4)cc3nc3cc(NC(=O)CCN4CCCC4)ccc23)cc1, the viability, T/C was 95.1%.
The same measure, in the same setting: the same measure for `CC1COCCN1c1cc(C2(S(C)(=N)=O)CC2)nc(-c2ccnc3[nH]ccc23)n1` (stereo unspecified) + Cc1[nH]c2ccc(F)cc2c1-c1nc2c3cccnc3c3ncccc3c2[nH]1: 101%; for `COc1ccc([C@@H](O)c2cc(-c3ncnc4cc(N5CCOCC5)ccc34)c(F)cc2Cl)nn1` + Cc1[nH]c2ccc(F)cc2c1-c1nc2c3cccnc3c3ncccc3c2[nH]1: 102%.

The experiment is the same for the next values; noted with them: second compound 0.0316 µM; first compound 1 µM; stronger effect = lower value.
On to `C=CCn1c(=O)c2cnc(Nc3ccc(N4CCN(C)CC4)cc3)nc2n1-c1cccc(C(C)(C)O)n1` + CN(C)c1ccc(Nc2c3ccc(NC(=O)CCN4CCCC4)cc3nc3cc(NC(=O)CCN4CCCC4)ccc23)cc1, for which the viability, T/C was 75.2%.
Turning to `CC(C)(O)C1CCC(Nc2ccc3ncc(-c4cccc(C(F)(F)F)c4)n3n2)CC1` (stereo unspecified) + CN(C)c1ccc(Nc2c3ccc(NC(=O)CCN4CCCC4)cc3nc3cc(NC(=O)CCN4CCCC4)ccc23)cc1, the viability, T/C is 76.4%.
The same measure, in the same setting: the same measure for `COc1ncnc(C2CC2)c1-c1ncc2cnn(Cc3ccc(-c4nc(C(F)(F)F)cn4C(C)C)cc3)c2n1` + CN(C)c1ccc(Nc2c3ccc(NC(=O)CCN4CCCC4)cc3nc3cc(NC(=O)CCN4CCCC4)ccc23)cc1: 76.5%; for `CC1COCCN1c1cc(C2(S(C)(=N)=O)CC2)nc(-c2ccnc3[nH]ccc23)n1` (stereo unspecified) + Cc1[nH]c2ccc(F)cc2c1-c1nc2c3cccnc3c3ncccc3c2[nH]1: 81.8%; for `COc1ccc([C@@H](O)c2cc(-c3ncnc4cc(N5CCOCC5)ccc34)c(F)cc2Cl)nn1` + Cc1[nH]c2ccc(F)cc2c1-c1nc2c3cccnc3c3ncccc3c2[nH]1: 73.9%.

Staying with this experiment, now noted: second compound 0.0316 µM; first compound 3.16 µM; stronger effect = lower value.
On to `C=CCn1c(=O)c2cnc(Nc3ccc(N4CCN(C)CC4)cc3)nc2n1-c1cccc(C(C)(C)O)n1` + CN(C)c1ccc(Nc2c3ccc(NC(=O)CCN4CCCC4)cc3nc3cc(NC(=O)CCN4CCCC4)ccc23)cc1, for which the viability, T/C is 30.8%.
Turning to `CC(C)(O)C1CCC(Nc2ccc3ncc(-c4cccc(C(F)(F)F)c4)n3n2)CC1` (stereo unspecified) + CN(C)c1ccc(Nc2c3ccc(NC(=O)CCN4CCCC4)cc3nc3cc(NC(=O)CCN4CCCC4)ccc23)cc1, the viability, T/C is 21%.
